# Reference: article PMC6367362, “MD001, a Novel Peroxisome Proliferator-activated Receptor α/γ Agonist, Improves Glucose and Lipid Metabolism” (Scientific Reports, 2019)
# Legend:
# [1] = biological target: T1, PPARα (Homo sapiens, UniProt Q07869); assay: SPR analysis of binding to immobilised HA-PPARα; conditions: MD001 31.25-500 μM
# T1 construct: HA; made in house
# T1 sequence (Q07869 1-468): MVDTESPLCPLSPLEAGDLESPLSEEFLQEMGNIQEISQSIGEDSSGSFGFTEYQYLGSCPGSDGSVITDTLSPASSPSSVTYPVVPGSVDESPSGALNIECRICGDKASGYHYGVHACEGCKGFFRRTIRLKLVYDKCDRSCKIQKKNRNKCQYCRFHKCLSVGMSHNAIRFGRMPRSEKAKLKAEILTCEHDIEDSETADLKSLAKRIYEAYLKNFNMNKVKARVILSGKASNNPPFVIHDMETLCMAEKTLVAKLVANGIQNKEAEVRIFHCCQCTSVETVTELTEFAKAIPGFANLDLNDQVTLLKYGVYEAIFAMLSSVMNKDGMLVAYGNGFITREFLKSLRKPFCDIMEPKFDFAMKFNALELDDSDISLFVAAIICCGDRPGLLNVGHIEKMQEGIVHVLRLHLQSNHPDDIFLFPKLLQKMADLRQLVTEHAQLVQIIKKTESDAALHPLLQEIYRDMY
# Procedure: SPR analysis was performed using a Reichert SR7500DC (Reichert Technologies, Depew, NY, USA). HA-PPARα, HA-PPARβ/δ, and HA-PPARγ were purified as previously described[23] and was immobilised on CMDH chips (Reichert Technologies) according to the manufacturer’s instructions. MD001 was loaded in a dose-dependent manner (31.25, 62.5, 125, 250, and 500 μM) for the SPR assay. The dissociation constant (KD) value was determined using the Scrubber2 program (Informer Technologies, Inc., Los Angeles, CA, USA).
# [2] = test system: HepG2 cells; assay: qRT-PCR gene expression in HepG2 cells; assay type: cell-based, human; conditions: 24 h
# Procedure: Figure 2 MD001 induces the expression of target genes through PPARα and PPARγ activation. HEK293 cells were transiently co-transfected with human HA-PPARα (A) and HA-PPARγ (B) expression vectors along with the reporter plasmid (PPRE-pk-Luc) or control reporter plasmid (pk-Luc) with Renilla vector for 24 h. Cells were treated with MD001 (10 μM), rosiglitazone (rosi) (10 μM) or WY14643 (WY) (10 μM) for 24 h. Luciferase activity was normalised to Renilla luciferase activity as described in the Methods section. **, vs. vehicle. (C) HepG2 cells were treated with MD001 (10 μM) for 24 h, and total RNA was isolated and synthesised into cDNA. Relative expression was quantitated using qRT-PCR. **, vs. vehicle. (D,E) HepG2 cells were transfected with control siRNA, PPARα siRNA (D), or PPARγ siRNA (E) for 48 h and treated with vehicle, WY14643 (10 μM), rosiglitazone (10 μM) or MD001 (10 μM) for 24 h. Subsequently, cells were harvested for total RNA isolation. Relative expression of target genes was quantitated using qRT-PCR. ^#, vs. control siRNA; ^‡, vs. control siRNA/vehicle; ^§, vs. control siRNA/WY; * and **, vs. control siRNA/MD001. Data represent the mean ± SD of three independent experiments. *P < 0.05, **P < 0.01, ^#P < 0.01, ^‡P < 0.01, and ^§P < 0.01.
# (§1) Figure 3 MD001 promotes glucose consumption by induction of GLUT expression. HepG2 (A), differentiated 3T3-L1 adipocytes (B), and differentiated C2C12 myotubes (C) were treated with vehicle, MD001 (10, 50 μM), or rosiglitazone (rosi, 10 μM) for 24 h; glucose consumption was examined as described in the Methods section. Cells were harvested for total RNA isolation. Relative expression levels of GLUT2 (D) and GLUT4 (E,F) were quantitated using qRT-PCR. *, **, and ^† vs. vehicle. Data represent the mean ± SD of three independent experiments. *P < 0.05, **P < 0.01, and ^†P < 0.01.
# Figure 4 MD001 stimulates fatty acid oxidation in vitro. HepG2 (A), differentiated 3T3-L1 adipocyte (B), and differentiated C2C12 myotubes (C) were treated with vehicle or MD001 (10 μM) for 24 h and total RNA was isolated for cDNA synthesis. Relative gene expressions were analysed by qRT-PCR. HepG2 (D), differentiated 3T3-L1 adipocytes (E), and differentiated C2C12 myotubes (F) were treated with vehicle, MD001 (10 μM), or WY14643 (WY) (10 μM) for 24 h and the fatty acid oxidation rate was analysed as described in the Methods section. To confirm whether the fatty acid oxidation rate enhanced by MD001 is mediated by PPARα, HepG2 (G), differentiated 3T3-L1 (H), and differentiated C2C12 myotubes (I) were transfected with control or PPARα siRNA (20 nM) for 48 h, followed by treatment with vehicle, MD001 (10 μM), or WY14643 (WY) (10 μM) for 24 h. WY14643 was treated as positive control. *, **, vs. vehicle; ^† and ^‡, vs. vehicle/control siRNA; ^§, vs. WY/control siRNA; ^¶, vs. MD001/control siRNA. Data represent the mean ± SD of three independent experiments. *P < 0.05, **P < 0.01, ^†P < 0.01, ^‡P < 0.05, ^§P < 0.01, and ^¶P < 0.05.
# Total RNA was isolated using an RNeasy kit (Qiagen, Germantown, MD, USA) according to the manufacturer’s instructions. Complementary DNA (cDNA) was synthesised by reverse transcription using 0.5 μg of total RNA, and quantitative RT-PCR was performed using Power SYBR Green PCR Master Mix (ABI Thermo Fisher Scientific, Foster City, CA, USA) on a StepOne 48-well real-time PCR system (ABI/Thermo Fisher Scientific). GAPDH was used as an endogenous control. Primer sequences are summarized in Supplementary Table S1.
# [3] = test system: differentiated 3T3-L1 adipocytes; assay: In vitro glucose consumption assay, 3T3-L1 adipocytes; assay type: cell-based, mouse; conditions: 10, 50 μM, 24 h
# Procedure: as §1
# (§2) The glucose consumption assay was performed as previously described. Briefly, cells were treated with MD001 or rosiglitazone […]. The conditioned medium from cultured cells was harvested and assayed for glucose content using a Glucose Colorimetric Assay Kit II (BioVision Inc., Milpitas, CA, USA).
# [4] = test system: differentiated C2C12 myotubes; assay: In vitro glucose consumption assay, C2C12 myotubes; assay type: cell-based, mouse; conditions: 10, 50 μM, 24 h
# Procedure: as §1, §2
smiles,measurement,setting,value
Cc1c(O)cc(O)c2c(-c3ccccc3)c(C(=O)/C=C/c3ccccc3)c(=O)oc12 [MD001],Kd,[1],9.55 ± 0.8 µM
same,"expression of PPARα target genes ACOX, CPT, mCAD","[2]; HepG2, control siRNA, 10 μM",significantly increased
same,"expression of PPARγ target genes GK, CD36, FABP1","[2]; HepG2, control siRNA, 10 μM",significantly increased
same,"expression levels of ACOX, CPT, MLYCD, and FATP","[2]; HepG2, 10 μM",significantly increased
same,"expression of PPARα, PPARγ, and RXR genes","[2]; HepG2, 10 μM",significantly increased
same,expression of glucose transporter GLUT2,"[2]; HepG2, 10, 50 μM",significantly increased
same,glucose consumption,[3],significantly increased glucose consumption in a dose-dependent manner
same,glucose consumption,[4],significantly increased glucose consumption in a dose-dependent manner
